Reference: patent US6603023B2 (priority 1996, dated 2003)
Several values for one entry are separate records, joined by “and”; a condition that tells them apart may be missing. Equal values may be shown once. Where a name gives a salt, the structure may show the parent alone. Read-outs that look alike come from different tables or passages of the source.

Experiments:
Human CCRF-CEM Xenograft = experiment: CCRF-CEM xenograft in scid mice; format: in vivo, CB-17 scid mice
[1] = system: CCRF-CEM human T-cell acute lymphoblastic leukemia cell line; experiment: XTT cytotoxicity (cell growth inhibition), CCRF-CEM
Summary of the method: (§1)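 XTT microculture tetrazolium readout, duplicate wells: 72 h compound incubation, then PMS-XTT (0.025 mM PMS) added, 4 h 37 °C, A450 and A630 measured. Suspension cells in RPMI-1640/10% FBS, 5×10^4 cells/mL; resistant sublines maintained with selecting drug.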

[2] = system: PC-3 Human Prostate Carcinoma; experiment: PC-3 xenograft; format: in vivo, nude mice; details: dEpoB 30 mg/kg 18 hr i.v. infusion, Taxol 16 mg/kg 6 hr infusion, VBL 2 and VP-16 25 mg/kg i.v. inj
CCRF-CEM/VM1 = experiment: cells; format: cell-based, human
Summary of the method: as §1

CCRF-CEM/Taxol® = experiment: cells; format: cell-based, human; details: Homo sapiens, CCRF-CEM, 72 h
Summary of the method: as §1

CCRF-CEM/VBL100 = experiment: cells; format: cell-based, human
Summary of the method: as §1

[3] = system: A549 Human Lung Carcinoma; experiment: A549 xenograft; format: in vivo, nude mice; details: Q2D x 3: dEpoB 30 mg/kg 18 hr i.v. infusion, Taxol 15 mg/kg 6 hr infusion, VBL 2 and VP-16 25 mg/kg i.v. inj
[4] = dose 0.2 i.p. QD d7-10,14,15, day 12
[5] = dose 0.2 i.p. QD d7-10,14,15, day 17
[6] = dose 0.2 i.p. QD d7-10,14,15, day 22
[7] = dose 0.4 i.p. QD d7-10,14,15, day 12
[8] = dose 0.4 i.p. QD d7-10,14,15, day 17
[9] = dose 0.4 i.p. QD d7-10,14,15, day 22
[10] = Homo sapiens, CCRF-CEM, 72 h, Table 1A, XTT
[11] = Homo sapiens, CCRF-CEM, Table 5, single determinations
[12] = Homo sapiens, CCRF-CEM, read-out: IC50 (mean ± of determinations, in parentheses), Table 5

**Q.** For `CC[C@]1(O)C[C@@H]2CN(CCc3c([nH]c4ccccc34)[C@@](C(=O)OC)(c3cc4c(cc3OC)N(C)[C@H]3[C@@](O)(C(=O)OC)[C@H](OC(C)=O)[C@]5(CC)C=CCN6CC[C@]43[C@@H]65)C2)C1` [Vinblastine, Vinblastine sulfate], which Average weight change (Human CCRF-CEM Xenograft; dose 0.2 i.p. QD d7-10,14,15, day 7) is on record?
**A.** The Average weight change was “+0.2”.

**Q.** What about the “Average tumor volume (control = 1.00)” value (Human CCRF-CEM Xenograft; [4]) of the same compound?
**A.** The value was 0.45.

**Q.** What about the Average weight change (Human CCRF-CEM Xenograft; [4]) of the same compound?
**A.** The Average weight change was −0.8.

**Q.** What about the “Average tumor volume (control = 1.00)” value (Human CCRF-CEM Xenograft; [5]) of the same compound?
**A.** The value was 0.25.

**Q.** What about the Average weight change (Human CCRF-CEM Xenograft; [5]) of the same compound?
**A.** The Average weight change was −1.5.

**Q.** And the “Average tumor volume (control = 1.00)” value (Human CCRF-CEM Xenograft; [6])?
**A.** Its value is 0.29.

**Q.** What about the Average weight change (Human CCRF-CEM Xenograft; [6]) of the same compound?
**A.** The Average weight change was −0.3.

**Q.** What about the Average weight change (Human CCRF-CEM Xenograft; dose 0.4 i.p. QD d7-10,14,15, day 7) of the same compound?
**A.** The Average weight change was −0.1.

**Q.** What about the “Average tumor volume (control = 1.00)” value (Human CCRF-CEM Xenograft; [7]) of the same compound?
**A.** The value was 0.31.

**Q.** What about the Average weight change (Human CCRF-CEM Xenograft; [7]) of the same compound?
**A.** Its Average weight change is −1.4.

**Q.** And the “Average tumor volume (control = 1.00)” value (Human CCRF-CEM Xenograft; [8])?
**A.** The value was 0.27.

**Q.** And the Average weight change (Human CCRF-CEM Xenograft; [8])?
**A.** The Average weight change was −1.8.

**Q.** What about the “Average tumor volume (control = 1.00)” value (Human CCRF-CEM Xenograft; [9]) of the same compound?
**A.** The value was 0.30.

**Q.** And the Average weight change (Human CCRF-CEM Xenograft; [9])?
**A.** Its Average weight change is −0.7.

**Q.** And the IC50 ([1]; Homo sapiens, CCRF-CEM)?
**A.** Its IC50 is 630 pM.

**Q.** What about the IC50 [1, 10] of the same compound?
**A.** Its IC50 is 6300 pM.

**Q.** And the IC50 ([1]; Homo sapiens, CCRF-CEM, Table 2)?
**A.** The IC50 was 680 pM.

**Q.** What about the IC50 [1, 11] of the same compound?
**A.** The IC50 was 800 pM.

**Q.** And the IC50 [1, 12]?
**A.** Its IC50 is 630 pM.

**Q.** What about the IC50 ([1]; Table 5, single determinations) of the same compound?
**A.** Its IC50 is 600 pM and 500 pM.

**Q.** And the “Average Body Weight (change), Day 9” value [2]?
**A.** Its value is “+1.4 g”.

**Q.** What about the “Average Body Weight (change), Day 11” value [2] of the same compound?
**A.** The value was “+2.1 g”.

**Q.** What about the “Average Body Weight (change), Day 13” value [2] of the same compound?
**A.** Its value is “+3.0 g”.

**Q.** And the “Average Tumor Size (TC), Day 9” value [2]?
**A.** The value was 0.37 TC.

**Q.** And the “Average Tumor Size (TC), Day 11” value [2]?
**A.** The value was 0.13 TC.

**Q.** What about the “Average Tumor Size (TC), Day 13” value [2] of the same compound?
**A.** Its value is 0.03 TC.

**Q.** What about the “Tumor Disappearance” value [2] of the same compound?
**A.** Its value is 1/3.

**Q.** And the “Average Body Weight, Day 5” value ([2]; initial weight)?
**A.** The value was 23.5 g.

**Q.** And the IC50 (CCRF-CEM/VM1; [10])?
**A.** The IC50 was 410 pM.

**Q.** And the IC50 (CCRF-CEM/VM1; Homo sapiens, CCRF-CEM, Table 2, CCR-CEM/VM-1)?
**A.** Its IC50 is 680 pM.

**Q.** And the IC50 (CCRF-CEM/VM1; [11])?
**A.** Its IC50 is 490 pM.

**Q.** What about the IC50 (CCRF-CEM/VM1; [12]) of the same compound?
**A.** Its IC50 is 410 pM.

**Q.** And the IC50 (CCRF-CEM/VM1; Table 5, single determinations)?
**A.** Its IC50 is 390 pM and 360 pM.

**Q.** And the IC50 (CCRF-CEM/Taxol®)?
**A.** Its IC50 is 6900 pM.

**Q.** What about the IC50 (CCRF-CEM/VBL100; Homo sapiens, CCRF-CEM) of the same compound?
**A.** The IC50 was 332000 pM.

**Q.** What about the IC50 (CCRF-CEM/VBL100; [10]) of the same compound?
**A.** Its IC50 is 332000 pM.

**Q.** What about the IC50 (CCRF-CEM/VBL100; Homo sapiens, CCRF-CEM, Table 2, CCRF-CEM/VLB) of the same compound?
**A.** The IC50 was 465000 pM.

**Q.** What about the IC50 (CCRF-CEM/VBL100; Homo sapiens, CCRF-CEM, Table 5, CCRF-CEM/VLB, single determinations) of the same compound?
**A.** Its IC50 is 440000 pM.

**Q.** What about the IC50 (CCRF-CEM/VBL100; [12]) of the same compound?
**A.** Its IC50 is 332000 pM.

**Q.** And the IC50 (CCRF-CEM/VBL100; Table 5, CCRF-CEM/VLB, single determinations)?
**A.** The IC50 was 221000 pM and 336000 pM.

**Q.** And the “Average Body Weight (change), Day 13” value [3]?
**A.** The value was “+2.3 g”.

**Q.** And the “Average Body Weight (change), Day 15” value [3]?
**A.** Its value is “+3.2 g”.

**Q.** And the “Tumor Disappearance” value [3]?
**A.** The value was 2/3.

**Q.** And the “Average Tumor Size, Day 11” value ([3]; control 96)?
**A.** The value was 11 mm^3.

**Q.** And the “Average Tumor Size, Day 13” value ([3]; control 128)?
**A.** The value was 11 mm^3.

**Q.** What about the “Average Tumor Size, Day 15” value ([3]; control 306) of the same compound?
**A.** Its value is 11 mm^3.

**Q.** What about the “Average Tumor Size, Day 17” value ([3]; control 553) of the same compound?
**A.** The value was 7 mm^3.

**Q.** And the “Average Body Weight, Day 7” value ([3]; initial weight)?
**A.** Its value is 25.5 g.
